Results taken from patent publication US11571423B2, “Small molecule modulators of human sting” (Curadev Pharma Limited, priority 2017, dated 2023).
Where a name gives a salt, the structure may show the parent alone. Read-outs that look alike come from different tables or passages of the source.

Assays:
hSTING(R232) = hSTING(R232) (Homo sapiens, UniProt Q86WV6, H232R); test: Luciferase reporter assay in HEK293T-hSTING-Luciferase cells, R232 (wild type) human STING; type: cell-based; conditions: 20 hr stimulation
Summary of the method: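 Clonal HEK293T cells stably expressing STING from a pUNO-1 plasmid plus an ISRE/ISG54-driven secreted luciferase reporter; 5×10^5 cells stimulated with compound for 20 hr. Supernatant luciferase read by luminescence, giving fold-induction over baseline and EC50.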

[1] = target: cynomolgus monkey STING protein (Macaca fascicularis, UniProt A0A2R3XZA6); test: Luciferase reporter assay, cynomolgus monkey STING overexpressed in HEK293T cells; type: cell-based
Procedure: 5×10^5 clonally selected HEK293T-hSTING-Luciferase cells were seeded in 384-well plates in growth medium and stimulated with novel compounds. After 20 hr of stimulation supernatant were removed and secretary reporter gene activity were measured using the Quanti-Luc detection system (Invivogen) on a Spectramax i3X luminometer.
In the tables below, EC50 value ranges for exemplary compounds are given.
Selected compounds were further tested against cynomolgus monkey STING protein overexpressed in HEK293T cells.

[2] = read-out: R232 human activity (EC50 range)
[3] = cynomolgus monkey STING overexpressed in HEK293T cells, read-out: Cynomolgus monkey STING activity (EC50 range)

hSTING(R232), sequence (Q86WV6 whole entry H232R): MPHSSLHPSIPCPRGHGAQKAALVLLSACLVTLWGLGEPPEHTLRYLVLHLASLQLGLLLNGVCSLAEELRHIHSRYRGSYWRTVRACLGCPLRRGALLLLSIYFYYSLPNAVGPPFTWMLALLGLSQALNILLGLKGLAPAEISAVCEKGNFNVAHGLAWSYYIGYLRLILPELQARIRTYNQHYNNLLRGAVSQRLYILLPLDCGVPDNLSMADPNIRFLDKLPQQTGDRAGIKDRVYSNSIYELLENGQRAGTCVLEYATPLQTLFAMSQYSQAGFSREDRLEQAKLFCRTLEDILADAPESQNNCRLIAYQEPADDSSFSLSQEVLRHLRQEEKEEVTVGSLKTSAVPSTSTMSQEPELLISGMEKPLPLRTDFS
cynomolgus monkey STING protein, sequence (A0A2R3XZA6 entry or part of it): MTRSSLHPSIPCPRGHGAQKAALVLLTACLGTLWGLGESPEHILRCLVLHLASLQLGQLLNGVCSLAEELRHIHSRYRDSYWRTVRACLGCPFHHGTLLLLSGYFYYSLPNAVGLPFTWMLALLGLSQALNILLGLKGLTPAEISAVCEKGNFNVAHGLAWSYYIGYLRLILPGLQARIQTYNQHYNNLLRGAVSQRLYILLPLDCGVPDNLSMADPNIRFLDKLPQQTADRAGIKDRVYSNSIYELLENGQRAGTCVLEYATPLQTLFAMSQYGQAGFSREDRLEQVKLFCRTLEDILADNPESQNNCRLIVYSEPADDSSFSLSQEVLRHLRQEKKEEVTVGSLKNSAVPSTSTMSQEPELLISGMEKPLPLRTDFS

Row | SMILES | EC50 (hSTING(R232); [2]) | EC50 [1, 3] | EC50 (hSTING(R232); R232 human activity (EC50 range)) | EC50 [1]
1 | C[C@H]1c2ccc(C(=O)NCc3c(F)cc(F)cc3F)cc2N(Cc2c(F)ccc(OP(=O)(O)O)c2Cl)C(=O)N1C [Example 89, (S)-2-Chloro-3-((3,4-dimethyl-2-oxo-7-((2,4,6-trifluorobenzyl)carbamoyl)-3,4-dihydroquinazolin-1(2H)-yl)methyl-4-fluorophenyldihydrogen phosphate] | < 1 µM | < 1 µM | – | –
2 | CNCCN(C)C(=O)Oc1ccc(F)c(CN2C(=O)N(C)[C@@H](C)c3ccc(C(=O)NCc4c(F)cc(F)cc4F)cc32)c1Cl [Example 300, (S)-2-chloro-3-((3,4-dimethyl-2-oxo-7-((2,4,6-trifluorobenzyl)carbamoyl)-3,4-dihydroquinazolin-1(2H)-yl)methyl)-4-fluorophenyl-methyl(2-(methylamino)ethyl)carbamate hydrochloride] | – | – | < 1 µM | < 1 µM
3 | C[C@H]1c2ccc(C(=O)NCc3c(F)cc(F)cc3F)cc2N(Cc2c(F)cc(OCCN)cc2Cl)C(=O)N1C [Example 299, (S)-1-(4-(2-aminoethoxy)-2-chloro-6-fluorobenzyl)-3,4-dimethyl-2-oxo-N-(2,4,6-trifluorobenzyl)-1,2,3,4-tetrahydroquinazoline-7-carboxamide hydrochloride] | < 1 µM | > 10 µM | – | –
4 | COc1cc(F)c(CN2C(=O)N(C)[C@@H](C)c3ccc(C(=O)NCc4c(F)cc(F)cc4F)cc32)c(F)c1 [Example 79, (S)-1-(2,6-Difluoro-4-methoxybenzyl)-3,4-dimethyl-2-oxo-N-(2,4,6-trifluorobenzyl)-1,2,3,4-tetrahydroquinazoline-7-carboxamide] | < 1 µM | < 1 µM | – | –
5 | C[C@H]1c2ccc(C(=O)NCc3c(F)cc(F)cc3F)cc2N(Cc2c(O)cc(F)cc2F)C(=O)N1C [Example 260, (S)-1-(2,4-difluoro-6-hydroxybenzyl)-3,4-dimethyl-2-oxo-N-(2,4,6-trifluorobenzyl)-1,2,3,4-tetrahydroquinazoline-7-carboxamide] | < 1 µM | < 1 µM | – | –
6 | C[C@H]1c2ccc(C(=O)NCc3c(F)cc(F)cc3F)cc2N(Cc2c(F)cc(OCC(O)CO)cc2F)C(=O)N1C (stereo partly drawn) [Example 145, (4S)-1-(4-(2,3-Dihydroxypropoxy)-2,6-difluorobenzyl)-3,4-dimethyl-2-oxo-N-(2,4,6-trifluorobenzyl)-1,2,3,4-tetrahydroquinazoline-7-carboxamide] | < 1 µM | < 1 µM | – | –
7 | C[C@H]1c2ccc(C(=O)NCc3c(F)cc(F)cc3F)cc2N(Cc2cc(OCCCO)ccc2F)C(=O)N1C [Example 271, (S)-1-(2-fluoro-5-(3-hydroxypropoxy)benzyl)-3,4-dimethyl-2-oxo-N-(2,4,6-trifluorobenzyl)-1,2,3,4-tetrahydroquinazoline-7-carboxamide] | < 1 µM | 1 to 10 µM | – | –
8 | COc1cc(F)c(CN2C(=O)N(C)C(C)c3ccc(C(=O)NCc4c(F)cc(F)cc4F)cc32)c(F)c1 (stereo not drawn) [Example 165, 1-(2,6-difluoro-4-methoxybenzyl)-3,4-dimethyl-2-oxo-N-(2,4,6-trifluorobenzyl)-1,2,3,4-tetrahydroquinazoline-7-carboxamide] | < 1 µM | < 1 µM | – | –
9 | C[C@H]1c2ccc(C(=O)NCc3c(F)cc(F)cc3F)cc2N(Cc2c(F)cc(OCCN3CCOCC3)cc2F)C(=O)N1C [Example 291, (S)-1-(2,6-difluoro-4-(2-morpholinoethoxy)benzyl)-3,4-dimethyl-2-oxo-N-(2,4,6-trifluorobenzyl)-1,2,3,4-tetrahydroquinazoline-7-carboxamide] | < 1 µM | < 1 µM | – | –
10 | C[C@H]1c2ccc(C(=O)NCc3c(F)cc(F)cc3F)cc2N(Cc2c(F)cc(OP(=O)(O)O)cc2F)C(=O)N1C [Example 84, (S)-4-((3,4-Dimethyl-2-oxo-7-((2,4,6-trifluorobenzyl)carbamoyl)-3,4-dihydroquinazolin-1(2H)-yl)methyl)-3,5-difluorophenyl dihydrogen phosphate] | < 1 µM | < 1 µM | – | –

The next lines start with results.

Row | EC50 (hSTING(R232); [2]) | EC50 [1, 3] | SMILES | EC50 (hSTING(R232); R232 human activity (EC50 range)) | EC50 [1]
11 | < 1 µM | > 10 µM | C[C@H]1c2ccc(C(=O)NCc3c(F)cc(F)cc3F)cc2N(Cc2c(F)ccc(OCCCOP(=O)(O)O)c2Cl)C(=O)N1C [Example 96, (S)-3-(2-chloro-3-((3,4-dimethyl-2-oxo-7-((2,4,6-trifluorobenzyl)carbamoyl)-3,4-dihydroquinazolin-1(2H)-yl)methyl)-4-fluorophenoxy)propyl dihydrogen phosphate] | – | –
12 | < 1 µM | 1 to 10 µM | C[C@H]1c2ccc(C(=O)NCc3c(F)cc(F)cc3F)cc2N(Cc2cc(OCCO)ccc2F)C(=O)N1C [Example 263, (S)-1-(2-fluoro-5-(2-hydroxyethoxy)benzyl)-3,4-dimethyl-2-oxo-N-(2,4,6-trifluorobenzyl)-1,2,3,4-tetrahydroquinazoline-7-carboxamide] | – | –
13 | < 1 µM | < 1 µM | CC1c2ccc(C(=O)NCc3c(F)cc(F)cc3F)cc2N(Cc2c(F)cccc2C(F)(F)F)C(=O)N1C (stereo not drawn) [Example 209, 1-(2-fluoro-6-(trifluoromethyl)benzyl)-3,4-dimethyl-2-oxo-N-(2,4,6-trifluorobenzyl)-1,2,3,4-tetrahydroquinazoline-7-carboxamide] | – | –
14 | < 1 µM | 1 to 10 µM | C[C@H]1c2ccc(C(=O)NCc3c(F)cc(F)cc3F)cc2N(Cc2cc(OCCO)cc(F)c2F)C(=O)N1C [Example 282, (S)-1-(2,3-difluoro-5-(2-hydroxyethoxy)benzyl)-3,4-dimethyl-2-oxo-N-(2,4,6-trifluorobenzyl)-1,2,3,4-tetrahydroquinazoline-7-carboxamide] | – | –
15 | < 1 µM | < 1 µM | C[C@H]1c2ccc(C(=O)NCc3c(F)cc(F)cc3F)cc2N(Cc2c(F)cc(OC[C@H](O)CO)cc2F)C(=O)N1C [Example 146, (S)-1-(4-((R)-2,3-Dihydroxypropoxy)-2,6-difluorobenzyl)-3,4-dimethyl-2-oxo-N-(2,4,6-trifluorobenzyl)-1,2,3,4-tetrahydroquinazoline-7-carboxamide] | – | –
16 | < 1 µM | 1 to 10 µM | C[C@H]1c2ccc(C(=O)NCc3c(F)cc(F)cc3F)cc2N(Cc2c(OCCO)ccc(F)c2F)C(=O)N1C [Example 254, (S)-1-(2,3-difluoro-6-(2-hydroxyethoxy)benzyl)-3,4-dimethyl-2-oxo-N-(2,4,6-trifluorobenzyl)-1,2,3,4-tetrahydroquinazoline-7-carboxamide] | – | –
17 | < 1 µM | < 1 µM | COc1cc(F)cc(F)c1CN1C(=O)N(C)[C@@H](C)c2ccc(C(=O)NCc3c(F)cc(F)cc3F)cc21 [Example 259, (S)-1-(2,4-difluoro-6-methoxybenzyl)-3,4-dimethyl-2-oxo-N-(2,4,6-trifluorobenzyl)-1,2,3,4-tetrahydroquinazoline-7-carboxamide] | – | –
18 | < 1 µM | > 10 µM | C[C@H]1c2ccc(C(=O)NCc3c(F)cc(F)cc3F)cc2N(Cc2c(F)cc(F)cc2OCCCOP(=O)(O)O)C(=O)N1C [Example 94, (S)-3-(2-((3,4-dimethyl-2-oxo-7-((2,4,6-trifluorobenzyl)carbamoyl)-3,4-dihydroquinazolin-1(2H)-yl)methyl)-3,5-difluorophenoxy)propyl dihydrogen phosphate] | – | –
